Key:
[1] = 101 kPa, Liquid; for viscosity: Falling or rolling sphere viscometry; for mass density: Vibrating tube method
[2] = xn = mol fraction of the nth substance listed; conditions: 101 kPa, Liquid, x2 = 0; for viscosity: Falling or rolling sphere viscometry; for mass density: Vibrating tube method

CCCCn1cc[n+](C)c1C.F[B-](F)(F)F [1-butyl-2,3-dimethylimidazolium tetrafluoroborate]
[1]
Conditions | mass density [kg/m3] | viscosity [mPa·s]
298.15 K | 1193.19 | 650
303.15 K | 1189.8 | 447
313.15 K | 1183.02 | 232.9
323.15 K | 1176.38 | 132.8
333.15 K | 1169.82 | 81.53
343.15 K | 1163.26 | 53.99
353.15 K | 1156.71 | 37.13

CC#N [acetonitrile]
[1]
Conditions | mass density [kg/m3] | viscosity [mPa·s]
298.15 K | 776.55 | 0.37
303.15 K | 771.13 | 0.354
313.15 K | 760.18 | 0.327
323.15 K | 749.11 | 0.302
333.15 K | 737.86 | 0.281
343.15 K | 726.43 | 0.262

CC#N [acetonitrile] + CCCCn1cc[n+](C)c1C.F[B-](F)(F)F
[2]
Conditions | mass density [kg/m3] | viscosity [mPa·s]
298.15 K | 776.55 | 0.37
303.15 K | 771.13 | 0.354
313.15 K | 760.18 | 0.327
323.15 K | 749.11 | 0.302
333.15 K | 737.86 | 0.281
343.15 K | 726.43 | 0.262

C[S+](C)[O-] [dimethyl sulfoxide]
[1]
Conditions | mass density [kg/m3] | viscosity [mPa·s]
298.15 K | 1095.74 | 2.012
303.15 K | 1090.73 | 1.843
313.15 K | 1080.69 | 1.556
323.15 K | 1070.66 | 1.337
333.15 K | 1060.63 | 1.165
343.15 K | 1050.58 | 1.028
353.15 K | 1040.51 | 0.917

C[S+](C)[O-] [dimethyl sulfoxide] + CCCCn1cc[n+](C)c1C.F[B-](F)(F)F
[2]
Conditions | mass density [kg/m3] | viscosity [mPa·s]
298.15 K | 1095.74 | 2.012
303.15 K | 1090.73 | 1.843
313.15 K | 1080.69 | 1.556
323.15 K | 1070.66 | 1.337
333.15 K | 1060.63 | 1.165
343.15 K | 1050.58 | 1.028
353.15 K | 1040.51 | 0.917

From the NIST ThermoML archive (doi:10.1021/je3007474)
